From patent US12559455B2, “Compound as a UBR box domain ligand” (AUTOTAC INC., priority 2020, dated 2026)

Molecular target: T1, UBR1 (Rattus norvegicus, UniProt A0A8I5ZK69)
T1 construct: endogenous in cells; host or cells: L6 rat muscle-derived cells
Test: Inhibition of muscle cell actin degradation by immunoblotting
Assay type: cell-based
Details: L6 cell line, compound 5 uM, 24 hours
Procedure: To evaluate the actin degradation of compounds in muscle cells, a L6 cell line, which is a rat muscle-derived cell, was cultured using a DMEM medium containing 10% FBS and 1% streptomycin/penicillin in an incubator in which 5% carbon dioxide was maintained. In order to measure the UBR1 binding strength according to the treatment with a representative compound selected from the present compounds, cells were aliquoted into a 12-well plate. The cells were additionally cultured for 24 hours so as to be completely attached to the surface of the plate. […] To extract proteins from the collected cells, 50 uL of a lysis buffer (20 mM Tris, pH 7.4, 150 mM NaCl, 1% Triton-X-100, 2 mM NaF, 2 mM EDTA, 2 mM b-glycerophosphate, 5 mM sodium orthovanadate, 1 mM PMSF, leupeptin, aprotenin) was injected into each sample, and the cells were lysed. A sample buffer was added to each sample based on the measured total protein concentration, and the mixture was reacted at 100° C. for 5 minutes. After 5 uL was taken from the completely reacted sample and aliquoted into each well of an acrylamide gel, an immunoblotting method was performed, and the experimental results were illustrated in [FIG. 4], [FIG. 5], [FIG. 6], [FIG. 7], [FIG. 8], and [FIG. 9]. For the immunoblotting method, a representative experiment was schematized from three or more independent experiments.

T1 sequence (A0A8I5ZK69 1-1749): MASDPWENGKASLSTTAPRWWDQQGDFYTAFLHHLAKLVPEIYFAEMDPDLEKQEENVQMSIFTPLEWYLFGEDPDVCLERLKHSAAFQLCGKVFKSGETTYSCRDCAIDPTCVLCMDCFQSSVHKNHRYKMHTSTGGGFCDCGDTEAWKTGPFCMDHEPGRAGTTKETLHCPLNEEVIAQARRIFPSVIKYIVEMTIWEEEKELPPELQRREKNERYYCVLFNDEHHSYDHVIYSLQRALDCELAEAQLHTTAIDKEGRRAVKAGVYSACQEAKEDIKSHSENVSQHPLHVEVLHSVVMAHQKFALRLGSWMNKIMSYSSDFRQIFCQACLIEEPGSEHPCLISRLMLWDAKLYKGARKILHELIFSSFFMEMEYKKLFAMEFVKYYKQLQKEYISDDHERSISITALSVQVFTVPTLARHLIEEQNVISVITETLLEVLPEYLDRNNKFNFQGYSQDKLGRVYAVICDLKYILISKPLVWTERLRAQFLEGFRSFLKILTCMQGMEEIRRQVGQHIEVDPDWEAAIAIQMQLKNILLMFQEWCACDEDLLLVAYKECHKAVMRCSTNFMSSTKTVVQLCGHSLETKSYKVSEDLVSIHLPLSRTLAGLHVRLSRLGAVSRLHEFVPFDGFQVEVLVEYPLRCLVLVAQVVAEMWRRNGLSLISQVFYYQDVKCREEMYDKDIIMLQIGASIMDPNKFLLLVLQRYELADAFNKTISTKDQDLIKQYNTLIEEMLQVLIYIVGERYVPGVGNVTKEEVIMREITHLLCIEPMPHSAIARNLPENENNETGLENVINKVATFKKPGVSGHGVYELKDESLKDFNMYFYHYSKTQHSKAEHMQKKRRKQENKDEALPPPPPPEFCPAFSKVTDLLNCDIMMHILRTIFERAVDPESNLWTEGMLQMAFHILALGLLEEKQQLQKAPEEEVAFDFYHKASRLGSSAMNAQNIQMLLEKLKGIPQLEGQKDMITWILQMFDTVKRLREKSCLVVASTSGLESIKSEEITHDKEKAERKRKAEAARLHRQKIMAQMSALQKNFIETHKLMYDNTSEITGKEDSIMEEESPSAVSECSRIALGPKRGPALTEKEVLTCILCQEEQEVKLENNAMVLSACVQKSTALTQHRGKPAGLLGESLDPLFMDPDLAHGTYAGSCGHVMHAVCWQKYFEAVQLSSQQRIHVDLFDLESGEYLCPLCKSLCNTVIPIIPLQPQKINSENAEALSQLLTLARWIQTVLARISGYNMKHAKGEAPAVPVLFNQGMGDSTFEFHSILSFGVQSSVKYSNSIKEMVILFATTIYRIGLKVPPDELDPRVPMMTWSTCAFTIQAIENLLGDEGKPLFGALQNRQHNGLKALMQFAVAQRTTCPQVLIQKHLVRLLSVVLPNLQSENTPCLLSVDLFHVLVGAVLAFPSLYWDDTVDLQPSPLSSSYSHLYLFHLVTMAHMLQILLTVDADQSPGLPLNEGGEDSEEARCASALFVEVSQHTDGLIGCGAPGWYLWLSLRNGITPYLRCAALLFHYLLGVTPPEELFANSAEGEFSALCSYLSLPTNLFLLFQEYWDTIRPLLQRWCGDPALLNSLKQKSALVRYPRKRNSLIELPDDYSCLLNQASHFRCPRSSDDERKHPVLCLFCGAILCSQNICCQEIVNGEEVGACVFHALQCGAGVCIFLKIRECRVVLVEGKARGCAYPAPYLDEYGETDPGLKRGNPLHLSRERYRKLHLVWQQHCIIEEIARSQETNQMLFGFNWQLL

Row | level of ACTA1 compared to the control | level of ACTA2 compared to the control | level of ACTG2 compared to the control | level of ACTC1 compared to the control | Molecule
1 | further increased | – | – | – | Cc1ccc(S(=O)(=O)NNC(=O)c2ccc(O)cc2)cc1 [Compound 1, N′-(4-hydroxybenzoyl)-4-methylbenzenesulfonohydrazide]
2 | further increased | – | – | – | Nc1ccc(S(=O)(=O)NNC(=O)c2ccc(-c3ccccc3)cc2)cc1 [Compound 6, N′-([1,1′-biphenyl]-4-carbonyl)-4-aminobenzenesulfonohydrazide]
3 | – | further increased | – | – | Nc1cccc(S(=O)(=O)NNC(=O)c2ccc(O)cc2)c1 [Compound 8, 3-amino-N′-(4-hydroxybenzoyl)benzenesulfonohydrazide]
4 | – | further increased | – | – | CC(N)c1ccc(S(=O)(=O)NNC(=O)c2ccc(O)cc2)cc1 (stereo not drawn) [Compound 9, 4-(1-aminoethyl)-N′-(4-hydroxybenzoyl)benzenesulfonohydrazide]
5 | – | – | further increased | – | COc1ccc(S(=O)(=O)NNC(=O)c2ccc(O)cc2)cc1 [Compound 13, N′-(4-hydroxybenzoyl)-4-methoxybenzenesulfonohydrazide]
6 | – | – | further increased | – | NC(=O)c1ccc(S(=O)(=O)NNC(=O)c2ccc(O)cc2)cc1 [Compound 15, 4-((2-(4-hydroxybenzoyl)hydrazinyl)sulfonyl)benzamide]
7 | – | – | further increased | – | Nc1ccc(S(=O)(=O)NNC(=O)c2ccc(O)cc2)cc1-c1ccccc1 [Compound 17, 6-amino-N′-(4-hydroxybenzoyl)-[1,1′-biphenyl]-3-sulfonohydrazide]
8 | – | further increased | – | – | NC(=O)c1ccc(C(=O)NNS(=O)(=O)c2ccc(N)cc2)cc1 [Compound 18, 4-(2-((4-aminophenyl)sulfonyl)hydrazine-1-carbonyl)benzamide]
9 | – | further increased | – | – | Nc1ccc(CNNC(=O)c2ccc(O)cc2)cc1 [Compound 19, N′-(4-aminobenzyl)-4-hydroxybenzohydrazide]
10 | – | further increased | – | – | Nc1ccc(S(=O)(=O)NNC(=O)c2c[nH]c3ccccc23)cc1 [Compound 20, 4-amino-N′-(1H-indole-3-carbonyl)benzenesulfonohydrazide]
11 | – | further increased | – | – | O=C(NNS(=O)(=O)c1ccc([N+](=O)[O-])c(N2CCCC2)c1)c1ccc(O)cc1 [Compound 22, N′-(4-hydroxybenzoyl)-4-nitro-3-(pyrrolidin-1-yl)benzenesulfonohydrazide]
12 | – | further increased | – | – | Nc1ccc(S(=O)(=O)NNC(=O)c2ccc(O)cc2)cc1N1CCCCC1 [Compound 23, 4-amino-N′-(4-hydroxybenzoyl)-3-(piperidin-1-yl)benzenesulfonohydrazide]
13 | – | further increased | – | – | O=C(NNS(=O)(=O)c1cn[nH]c1)c1ccc(O)cc1 [Compound 24, N′-(4-hydroxybenzoyl)-1H-pyrazole-4-sulfonohydrazide]
14 | – | further increased | – | – | O=C(NNS(=O)(=O)c1cccc2c1CCN2)c1ccc(O)cc1 [Compound 25, N′-(4-hydroxybenzoyl)indoline-4-sulfonohydrazide]
15 | – | further increased | – | – | O=C(NNS(=O)(=O)c1cccc2[nH]ccc12)c1ccc(O)cc1 [Compound 26, N′-(4-hydroxybenzoyl)-1H-indole-4-sulfonohydrazide]
16 | – | further increased | – | – | Nc1ccc(S(=O)(=O)NNC(=O)Nc2ccccc2)cc1 [Compound 27, 2-((4-aminophenyl)sulfonyl)-N-phenylhydrazine-1-carboxamide]
17 | – | further increased | – | – | Nc1ccc(S(=O)(=O)NNC(=O)c2cccc3[nH]ccc23)cc1N1CCOCC1 [Compound 28, 4-amino-N′-(1H-indole-4-carbonyl)-3-morpholinobenzenesulfonohydrazide]

Row | level of ACTA1 compared to the control | level of ACTA2 compared to the control | level of ACTG2 compared to the control | level of ACTC1 compared to the control | Molecule
18 | – | – | further increased | – | Nc1ccc(S(=O)(=O)NNC(=O)c2cccc3c2CCN3)cc1 [Compound 29, 4-amino-N′-(indoline-4-carbonyl)benzenesulfonohydrazide]
19 | – | – | further increased | – | Nc1ccc(S(=O)(=O)NNC(=O)c2ccc(O)cc2)cc1N1CCNCC1 [Compound 30, 4-amino-N′-(4-hydroxybenzoyl)-3-(piperazin-1-yl)benzenesulfonohydrazide]
20 | – | – | further increased | – | Nc1ccc(S(=O)(=O)NNC(=O)C2Cc3ccccc3C2)cc1 [Compound 31, 4-amino-N′-(2,3-dihydro-1H-indene-2-carbonyl)benzenesulfonohydrazide]
21 | – | further increased | – | – | Nc1ccc(S(=O)(=O)NNC(=O)N2Cc3ccccc3C2)cc1 [Compound 32, 4-amino-N′-(isoindoline-2-carbonyl)benzenesulfonohydrazide]
22 | – | further increased | – | – | Nc1ccc(S(=O)(=O)NNC(=O)Cc2ccccc2)cc1 [Compound 34, 4-amino-N′-(2-phenylacetyl)benzenesulfonohydrazide]
23 | further increased | – | – | – | O=C(NNS(=O)(=O)c1n[nH]c2ccccc12)c1ccc(O)cc1 [Compound 35, N′-(4-hydroxybenzoyl)-1H-indazole-3-sulfonohydrazide]
24 | further increased | – | – | – | Nc1ccc(S(=O)(=O)NNC(=O)c2ccc3c(c2)NCC3)cc1 [Compound 36, 4-amino-N′-(indoline-6-carbonyl)benzenesulfonohydrazide]
25 | further increased | – | – | – | Nc1ccc(S(=O)(=O)NNC(=O)C2CNc3ccccc32)cc1 (stereo not drawn) [Compound 37, 4-amino-N′-(indoline-3-carbonyl)benzenesulfonohydrazide]
26 | further increased | – | – | – | O=C(NNS(=O)(=O)C1CCNCC1)c1ccc(O)cc1 [Compound 38, N′-(4-hydroxybenzoyl)piperidine-4-sulfonohydrazide]
27 | further increased | – | – | – | Nc1ccc(S(=O)(=O)NNC(=O)c2ccc3c(c2)NCC3)cc1N1CCOCC1 [Compound 39, 4-amino-N′-(indoline-6-carbonyl)-3-morpholinobenzenesulfonohydrazide]
28 | – | – | – | further increased | Nc1ccc(S(=O)(=O)NNC(=O)N2CCNCC2)cc1N1CCOCC1 [Compound 41, 4-amino-3-morpholino-N′-(piperazine-1-carbonyl)benzenesulfonohydrazide]
29 | – | – | – | further increased | Cc1nc(S(=O)(=O)NNC(=O)c2ccc(O)cc2)cs1 [Compound 42, N′-(4-hydroxybenzoyl)-2-methylthiazole-4-sulfonohydrazide]
30 | further increased | – | – | – | NC1CCC(S(=O)(=O)NNC(=O)c2ccc(O)cc2)CC1 [Compound 43, (1S,4S)-4-amino-N′-(4-hydroxybenzoyl)cyclohexane-1-sulfonohydrazide]
31 | further increased | – | – | – | Cc1oc(C(=O)O)cc1S(=O)(=O)NNC(=O)c1ccc(O)cc1 [Compound 45, 4-((2-(4-hydroxybenzoyl)hydrazinyl)sulfonyl)-5-methylfuran-2-carboxylic acid]
32 | further increased | – | – | – | O=C(NNS(=O)(=O)C1CCNC1)c1ccc(O)cc1 (stereo not drawn) [Compound 46, N′-(4-hydroxybenzoyl)pyrrolidine-3-sulfonohydrazide]
33 | further increased | – | – | – | O=C(NNS(=O)(=O)c1cc2cccnc2[nH]1)c1ccc(O)cc1 [Compound 47, N′-(4-hydroxybenzoyl)-1H-pyrrolo[2,3-b]pyridine-2-sulfonohydrazide]
34 | further increased | – | – | – | (1R,4R)-4-amino-N′-(4-hydroxybenzoyl)cyclohexane-1-sulfonohydrazide [Compound 44]

Molecular target: T2, UBR box of Human UBR1 (Homo sapiens, UniProt Q8IWV7)
T2 construct: A Gln97-Pro168 portion corresponding to the UBR box of Human UBR1; made in house; host or cells: E. coli
Test: UBR box domain binding by microscale thermophoresis (MST)
Details: RED-NHS labeled UBR1 UBR box protein (Gln97-Pro168), FIGS. 12 to 19
Procedure: A Gln97-Pro168 portion corresponding to the UBR box of Human UBR1 (UniProt ID: Q81WV7) was cloned into a modified expression vector, and then expressed in E. coli. After affinity chromatography was used, a tag was removed by a protease, and then Gly-His-Met was added to the N-terminal. After ion chromatography was performed, a final UBR box protein of a UBR1 was purified using gel filtration chromatography in a buffer composition of 10 mM NaCl, 20 mM Tris-HCl, 2 mM beta-mercaptoethanol, and pH 7.5.
A dye of the Monolith protein labeling kit RED-NHS 2nd generation (Cat #MO-L011) has an NHS-ester group that forms a covalent bond with primary amines (lysine residues). This dye is optimized for a Monolith-series device equipped with a RED detector. A purified UBR1 UBR box protein was labeled according to the presented protocol using this kit.
Thermophoresis refers to a phenomenon in which particles move due to a temperature gradient. Particles present in a high temperature region have greater kinetic energy than particles present in a low temperature region, and more frequently collide with surrounding particles with greater energy. As a result, particles move from the high temperature region to the low temperature region.
Thermophoresis of proteins is typically different from that of protein-ligand complexes. This is because the binding of the ligand changes its size, electric charge, and solvation energy. […] Therefore, the binding of the UBR1 UBR box protein and the ligand compound was measured using MST, and it was confirmed that the presented ligand binds to the UBR1 UBR box (see FIGS. 12 to 19).

T2 sequence (Q8IWV7 97-168): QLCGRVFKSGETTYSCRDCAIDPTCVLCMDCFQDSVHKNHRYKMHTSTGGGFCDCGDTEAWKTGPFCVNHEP

Row | binding to UBR1 UBR box (MST) | Molecule
35 | binds | Cc1ccc(S(=O)(=O)NNC(=O)c2ccc(O)cc2)cc1 [Compound 1, N′-(4-hydroxybenzoyl)-4-methylbenzenesulfonohydrazide]
36 | binds | Nc1cccc(S(=O)(=O)NNC(=O)c2ccc(O)cc2)c1 [Compound 8, 3-amino-N′-(4-hydroxybenzoyl)benzenesulfonohydrazide]
37 | binds | CC(N)c1ccc(S(=O)(=O)NNC(=O)c2ccc(O)cc2)cc1 (stereo not drawn) [Compound 9, 4-(1-aminoethyl)-N′-(4-hydroxybenzoyl)benzenesulfonohydrazide]
38 | binds | O=C(NNS(=O)(=O)c1ccc(NCCO)cc1)c1ccc(O)cc1 [Compound 11, N′-(4-hydroxybenzoyl)-4-((2-hydroxyethyl)amino)benzenesulfonohydrazide]
39 | binds | COc1ccc(S(=O)(=O)NNC(=O)c2ccc(O)cc2)cc1 [Compound 13, N′-(4-hydroxybenzoyl)-4-methoxybenzenesulfonohydrazide]
